In patent US7163800B2, “Methods of screening compositions for G protein-coupled receptor desensitization inhibitory activity” (Molecular Devices Corporation, priority 2000, dated 2007):
Where two headings read alike, the source gives them in different places.

Assays:
[1] = molecular target: HA-tagged human β2-adrenergic receptor (β2AR) (Homo sapiens, UniProt P07550); experiment: arrestin-GFP localization (Fgrains) assay in U20S-β2AR/ArrGFP cells, isoproterenol stimulated
Procedure: Each of the fifteen compounds was separately screened for GPCR desensitization inhibitory activity against HA-tagged human β2-adrenergic receptor (β2AR) and against human vasopressin V2 receptor (V2R). In addition, the effects of temperature and carbon dioxide (CO2) were evaluated with respect to each compound.

[2] = molecular target: human vasopressin V2 receptor (V2R) (Homo sapiens, UniProt P30518); experiment: arrestin-GFP localization (Fgrains) assay in U20S-V2R/ArrGFP cells, arginine vasopressin stimulated; format: cell-based; conditions: 100 nM arginine vasopressin
Procedure: The assay was carried out using two different “double stable” human osteosarcoma cell (U20S) lines. […] The other cell line (U20S-V2R/ArrGFP) stably expressed V2R and the same arrestin-GFP conjugate.
The two cell lines (U20S-β2AR/ArrGFP and U20S-V2R/ArrGFP) were separately plated at 7000 cells/well on 384 well glass bottom plates. Two plates of U20S-β2AR/ArrGFP cells were prepared and two plates of U20S-V2R/ArrGFP cells were prepared.
Growth media was replaced with serum free media (i.e., Eagle's minimum essential medium (EMEM) buffered with 10 mM HEPES (N-2-Hydroxyethylpiperazine-N′-2-ethanesulfonic acid)) 24 hours after plating of the cells.
Each test compound was solvated using 100% dimethyl sulfoxide (DMSO). Multiple solutions of each compound were prepared at varying concentrations for testing in separate wells of each plate. If needed, the solutions were sonicated and heated to increase solubility. After preparation of the compound solutions, they were shielded from light.
Each of the solutions of varying concentrations of the fifteen compounds was added to a well on each of the four plates. The β2AR RT and V2R RT plates were incubated for 30 minutes at room temperature and atmospheric CO2.
Agonist was then added to each well. […] The β2AR RT and V2R RT plates were incubated for 30 minutes at room temperature and atmospheric CO2.
Each assay was then terminated using 1% paraformaldehyde containing 1 μM DRAQ5 DNA probe to fix the cells. The cells were analyzed using a pre-production model (alpha unit) of the IN Cell Analyzer 3000 (Amersham Biosciences), which is a line scanning, confocal imaging system. The IN Cell Analyzer 3000 was used to quantitate the localization of the arrestin-GFP conjugate for the cells in each well using the Amersham Biosciences granularity analysis GRNO algorithm. This algorithm finds the nucleus of cells and then dilates out a specified distance in which fluorescent spots or “grains” of arrestin-GFP localization are identified based on size and fluorescent intensity. The average of the fluorescent intensity of the identified grains per cell in an acquired image (i.e., Fgrains) was determined for each well on the plates.
The graphs for each compound as well as for the propanolol control are illustrated in FIGS. 7–22.
The curve-fitting program allowed the minimum and maximum values as well as the slope and EC50 values to vary rather than fixing the values to specified or collected values.

β2AR and V2R = conditions: inhibitory activity shown for both β2AR and V2R
Source text: Each of the fifteen compounds was separately screened for GPCR desensitization inhibitory activity against HA-tagged human β2-adrenergic receptor (β2AR) and against human vasopressin V2 receptor (V2R).
As indicated by the Fgrains values for the cells in the Basal and Stimulated control wells, the Fgrains value determined by the IN Cell Analyzer 3000 in this example was functionally a measure of the average extent of desensitization in the cells in each well.

[3] = B2AR CO2 plate: 37° C., 5% CO2/95% O2, 100 nM isoproterenol
[4] = V2R CO2 plate: 37° C., 5% CO2/95% O2
[5] = V2R RT plate: room temperature, atmospheric CO2
[6] = B2AR RT plate: room temperature, atmospheric CO2, 100 nM isoproterenol

HA-tagged human β2-adrenergic receptor (β2AR), sequence (P07550 whole entry): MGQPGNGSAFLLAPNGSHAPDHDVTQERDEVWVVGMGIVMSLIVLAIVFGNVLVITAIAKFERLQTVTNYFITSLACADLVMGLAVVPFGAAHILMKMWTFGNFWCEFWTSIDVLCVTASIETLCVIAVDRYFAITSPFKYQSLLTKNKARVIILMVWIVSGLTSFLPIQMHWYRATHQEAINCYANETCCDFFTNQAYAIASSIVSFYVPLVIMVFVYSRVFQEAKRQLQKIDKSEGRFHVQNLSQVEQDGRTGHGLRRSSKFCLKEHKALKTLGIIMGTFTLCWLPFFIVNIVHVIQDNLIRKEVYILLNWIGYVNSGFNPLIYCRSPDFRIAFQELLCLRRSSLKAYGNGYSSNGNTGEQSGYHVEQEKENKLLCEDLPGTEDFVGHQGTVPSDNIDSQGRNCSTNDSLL
human vasopressin V2 receptor (V2R), sequence (P30518 whole entry): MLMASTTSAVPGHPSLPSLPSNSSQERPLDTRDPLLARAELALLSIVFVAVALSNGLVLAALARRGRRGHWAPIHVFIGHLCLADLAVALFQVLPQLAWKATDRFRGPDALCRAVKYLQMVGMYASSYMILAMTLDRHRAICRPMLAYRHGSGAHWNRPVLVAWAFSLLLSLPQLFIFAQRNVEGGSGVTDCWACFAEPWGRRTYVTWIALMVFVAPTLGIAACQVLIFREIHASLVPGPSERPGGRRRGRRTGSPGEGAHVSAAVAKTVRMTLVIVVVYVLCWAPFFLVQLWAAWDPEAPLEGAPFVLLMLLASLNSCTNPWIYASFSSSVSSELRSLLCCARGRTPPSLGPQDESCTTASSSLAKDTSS

Row | SMILES | Max Rsp (change between fitted maximum and fitted minimum Fgrains) [1, 3] | Min (fitted minimum Fgrains) [1, 3] | slope of concentration-response curve [1, 3] | Max Rsp (change between fitted maximum and fitted minimum Fgrains) [2, 4] | Min (fitted minimum Fgrains) [2, 4] | pEC50 [2, 4] | slope of concentration-response curve [2, 4] | EC50 [2, 5] [µM] | Max Rsp (change between fitted maximum and fitted minimum Fgrains) [2, 5] | Min (fitted minimum Fgrains) [2, 5] | pEC50 [2, 5] | slope of concentration-response curve [2, 5] | pEC50 [1, 3] | Max Rsp (change between fitted maximum and fitted minimum Fgrains) [1, 6] | Min (fitted minimum Fgrains) [1, 6] | pEC50 [1, 6] | slope of concentration-response curve [1, 6] | EC50 [2, 4] [µM] | EC50 [1, 3] [µM] | indication of non-receptor-specific GPCR desensitization inhibitory activity (β2AR and V2R) | also measured
1 | CCC(=O)n1nc2c(c1C(C)(C)C)C(=O)c1ccccc1-2 [3-tert-Butyl-2-propionyl-2H-indeno[1,2-c]pyrazol-4-one] | 129 | 307 | 3.2 |  |  |  |  |  |  |  |  |  |  |  |  |  |  |  |  |  | EC50 [1]: 46.9 µM
2 | O=C1NC(=O)C(c2c[nH]c3ccccc23)=C1c1c[nH]c2ccccc12 [Bisindolylmaleimide IV] |  |  |  | 277 | 292 | 4.2 | 6.5 |  |  |  |  |  |  |  |  |  |  | 69.2 |  |  | 
3 | O=C1NC(=O)C(c2cn(CCCN3CCNCC3)c3ccccc23)=C1c1c[nH]c2ccccc12 [Bisindolylmaleimide VII] | 278 | 167 | 2.3 | 336 | 250 | 5.0 | 2.4 | 36.6 | 717 | −130 | 4.4 | 1.1 | 4.7 | 281 | 148 | 4.6 | 2.2 | 9.3 | 21.2 | non-receptor-specific GPCR desensitization inhibitory activity | EC50 [1, 6]: 24.9 µM
4 | Cn1cc(C2=C(c3cn(CCCN)c4ccccc34)C(=O)NC2=O)c2ccccc21 [RO-31-7549] | 243 | 193 | 1.2 | 357 | 240 | 5.6 | 1.0 | 3.3 | 320 | 250 | 5.5 | 1.5 | 5.0 | 423 | 4 | 4.5 | 0.8 | 2.7 | 9.4 | non-receptor-specific GPCR desensitization inhibitory activity | EC50 [1, 6]: 31.1 µM

Further lines, with some results ahead:

Row | Max Rsp (change between fitted maximum and fitted minimum Fgrains) [1, 3] | Min (fitted minimum Fgrains) [1, 3] | slope of concentration-response curve [1, 3] | Max Rsp (change between fitted maximum and fitted minimum Fgrains) [2, 4] | Min (fitted minimum Fgrains) [2, 4] | pEC50 [2, 4] | slope of concentration-response curve [2, 4] | EC50 [2, 5] [µM] | Max Rsp (change between fitted maximum and fitted minimum Fgrains) [2, 5] | Min (fitted minimum Fgrains) [2, 5] | pEC50 [2, 5] | slope of concentration-response curve [2, 5] | pEC50 [1, 3] | Max Rsp (change between fitted maximum and fitted minimum Fgrains) [1, 6] | Min (fitted minimum Fgrains) [1, 6] | pEC50 [1, 6] | slope of concentration-response curve [1, 6] | EC50 [2, 4] [µM] | EC50 [1, 3] [µM] | SMILES | indication of non-receptor-specific GPCR desensitization inhibitory activity (β2AR and V2R) | also measured
5 | 998 | −568 | 1.1 | 455 | 129 | 4.6 | 1.4 | 51.2 | 690 | −118 | 4.3 | 1.2 | 3.6 | 171 | 237 | 4.5 | 3.5 |  |  | Cl.NCCCn1cc(C2=C(c3c[nH]c4ccccc34)C(=O)NC2=O)c2ccccc21 [Bisindolylmaleimide III, Hydrochloride] | non-receptor-specific GPCR desensitization inhibitory activity | EC50 ([2]; V2R CO2 plate: 37° C., 5% CO2/95% O2, Hydrochloride): 27.2 µM; EC50 ([1]; B2AR CO2 plate: 37° C., 5% CO2/95% O2, 100 nM isoproterenol, Hydrochloride): 233 µM; EC50 ([1]; B2AR RT plate: room temperature, atmospheric CO2, 100 nM isoproterenol, Hydrochloride): 34.9 µM
6 | 194 | 243 | 1.8 | 298 | 291 | 5.2 | 1.9 | 19.3 | 361 | 225 | 4.7 | 0.9 | 5.0 | 232 | 212 | 4.7 | 1.2 | 6 | 11.1 | NCCCn1cc(C2=C(c3c[nH]c4ccccc34)C(=O)NC2=O)c2ccccc21 [Bisindolylmaleimide III] | non-receptor-specific GPCR desensitization inhibitory activity | EC50 [1, 6]: 22.4 µM
7 | 502 | −70 | 1.7 | 420 | 159 | 4.5 | 1.2 | 35 | 576 | −7 | 4.5 | 1.1 | 4.2 | 924 | −508 | 4.1 | 1.7 | 29.2 | 62.1 | CN1CCCC1CCn1cc(C2=C(c3c[nH]c4ccccc34)C(=O)NC2=O)c2ccccc21 (stereo not drawn) [Bisindolylmaleimide II] | non-receptor-specific GPCR desensitization inhibitory activity | EC50 [1, 6]: 87.3 µM
